Source: patent US20110195924A1, “Methods of Inhibiting the Interaction Between S100P and the Receptor for Advanced Glycation End-Products” (priority 2008, published 2011)

What was measured:
MPan-96 cells = assay: MPanc-96 cell invasiveness; format: cell-based, Human
NFκB activity = assay: S100P stimulated NFκB luciferase reporter in MPanc-96 cells; format: cell-based, Human; conditions: S100P 100 nM, compound 1 μM, 5 hours
Method: MPanc-96 pancreatic cancer cell lines stably expressing an NFκB luciferase reporter were examined for the effects of S100P, cromolyn and C5. Cells were plated at 5.0×10^3 cells/well, treated for 5 hours with 100 nM of S100P, with or without cromolyn and C5 (1 μM), and activity of a luciferase gene driven by the NFkB promoter was analyzed. P=0.05 C5 versus cromolyn. Two-tailed two-sample (unpaired) Student's t-tests were used to determine P values.

NFκB promoter activity = assay: NFκB luciferase reporter assay in BxPC-3 cells; format: cell-based; conditions: 5 hours; for basal NFκB activity, mean: 0 μM mean 1.4×10^6
S100P = target: T1, S100P (Homo sapiens, UniProt P25815); assay: S100P binding to cromolyn using affinity chromatography; conditions: cromolyn coupled to AF-TOYOPEARL; control column did not retain
T1 construct: full-length human S100P cDNA (NM_005980) was cloned into the pTrcHis2 vector; made in house; host or cells: bacteria (pTrcHis2 vector, IPTG induction)
T1 sequence (P25815 1-95): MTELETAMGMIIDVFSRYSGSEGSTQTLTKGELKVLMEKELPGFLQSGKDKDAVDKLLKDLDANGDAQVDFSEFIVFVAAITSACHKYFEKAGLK
Method: Cromolyn was coupled with the amino group of AF-amino TOYOPEARL to generate a cromolyn affinity column. A negative control column was prepared by blocking the amino group. Purified S100P was added to both columns, which were then washed extensively. Protein was eluted from the columns using EGTA and subjected to sodium dodecylsulfate polyacrylamide gel electrophoresis and staining with Commassie blue. Lane 1 of the gel is the molecular weight marker; lane 2 is the eluate from the control column; and lane 3 is the eluate from the cromolyn column (arrow, S100P). The gel shown is one of three independent experiments.
Cromolyn was coupled to AF-TOYOPEARL resin as described in Shishibori, et al., Three distinct anti-allergic drugs, amlexanox, cromolyn and tranilast, bind to S100A12 and S100A13 of the S100 protein family; Biochem. J. 1999 Mar. 15;338 (Pt 3):583-9. Briefly, 0.1 grams of cromolyn was dissolved in 1 mL of N,N-dimethylformamide and added to 7 mL (5 grams wet mass) AF-TOYOPEARL. Next, 0.5 grams of N-ethyl-N-(3-dimethylaminopropyl)carbodiimide hydrochloride, suspended in 10 mL of N,N-dimethylformamide, was added to the cromolyn+AF-TOYOPEARL slurry. The pH was adjusted to 5.0, and the slurry was incubated with gentle shaking for 48 hours at 25° C. As a negative control, a column was prepared by blocking the amino group of AF-TOYOPEARL with sodium acetate and acetic anhydride. […]

Panc-1 cells = assay: Panc-1 cell proliferation (MTS); format: cell-based
Method: Panc-1 pancreatic adenocarcinoma cells (1.0×10^3 cells/well) were cultured in the presence or absence of S100P (100 nM) and with or without cromolyn (100 μM), and cell proliferation was analyzed at 24, 48, and 72 hours. Means and 95% confidence intervals of three independent experiments performed in triplicate are shown. *, P=0.001, S100P alone versus S100P+cromolyn.
Panc-1 cells were plated at 1.0×10^3 cells/well and treated with platelet-derived growth factor (10 ng/mL) with or without cromolyn (100 μM), and cell proliferation was analyzed after 48 hours. Means and 95% confidence intervals of three independent experiments performed in triplicate are shown. *, P=0.004 PDGF and P=0.022 cromolyn+PDGF versus control.
Growth of Panc-1 and BxPC3 pancreatic adenocarcinoma cells was analyzed using MTS reagent (Promega, Madison, Wis.) according to the manufacturer's directions. Purified S100P (100 nM final concentration) with or without cromolyn (100 μM final concentration) was added to Panc-1 cells. Only cromolyn (0-100 μM) was added to BxPC-3 cells, which express endogenous S100P. For both cell models, 1.0×10^3 cells/well were plated in 96-well culture dishes. Cells were treated with S100P, PDGF, or cromolyn, or a combination, followed immediately by treatment with either S100P or PDGF. MTS (20 μL per well) was added to cells at various times, and the mixture was incubated for 1 hour at 37° C. Samples were then read at 490 nm (as O.D. units) on a uQuant-Microplate Spectrophotometer (Bio-Tek Services Inc., Richmond, Va.). The assay was performed three times in triplicate.

SKOV3 ovarian cells = assay: SKOV3 ovarian cell viability with taxol; format: cell-based; conditions: taxol 5 μM, cromolyn 10 μM, 48 hours
Method: SKOV3 ovarian cells were plated and treated with taxol (5 μM) either in the presence or absence of cromolyn (10 μM) for 48 hours. Cell viability was analyzed after 48 hours. *, P<0.05.

- retention of S100P on cromolyn affinity column (S100P): retained S100P
SMILES: O=C(O)c1cc(=O)c2c(OCC(O)COc3cccc4oc(C(=O)O)cc(=O)c34)cccc2o1 [cromolyn, disodium 1,3-bis[(2′-carboxylatochromon-5′-yl)oxy]-2-hydroxypropane]
- basal cell invasiveness (MPan-96 cells): inhibited
- NFκB activity in pancreatic cancer cells in vitro (NFκB activity): inhibit
- basal NFκB activity, difference versus 0 μM (NFκB promoter activity; cromolyn 10 μM): 4.7×10^5 photons/sec
- basal NFκB activity, mean (NFκB promoter activity; cromolyn 10 μM): 9.4×10^5 photons/sec
- basal NFκB activity, difference versus 0 μM (NFκB promoter activity; cromolyn 100 μM): 5.9×10^5 photons/sec
- basal NFκB activity, mean (NFκB promoter activity; cromolyn 100 μM): 8.2×10^5 photons/sec
- serum stimulated cell proliferation (Panc-1 cells; Panc-1): did not influence
- cell proliferation, cromolyn treatment alone (Panc-1 cells; Panc-1, no S100P): no effect
- PDGF stimulated cell growth (Panc-1 cells; Panc-1, PDGF 10 ng/mL with cromolyn 100 μM, 48 hours): nor did it inhibit growth stimulation caused by PDGF
- cell proliferation, mean (Panc-1 cells; Panc-1, S100P 100 nM + cromolyn 100 μM): 0.56 MTS units
- cell proliferation, difference S100P versus S100P+cromolyn (Panc-1 cells; Panc-1, S100P 100 nM, cromolyn 100 μM): 0.37 MTS units
- cell killing effect of taxol on ovarian cancer cells (SKOV3 ovarian cells): increased the cell killing effect of taxol
